Results published in patent US11834423B2, “Small molecule prolactin receptor inhibitors, pharmaceutical compositions and treatment methods using such inhibitors” (University of Cincinnati, priority 2016, dated 2023).

B1: PRL: 25 kDa hormone produced by the anterior pituitary (protein, UniProt P01236 29-227, looked up)
Prolactin: LPICPGGAARCQVTLRDLFDRAVVLSHYIHNLSSEMFSEFDKRYTHGRGFITKAINSCHTSSLATPEDKEQAQQMNQKDFLSLIVSILRSWNEPLYHLVTEVRGMQEAPEAILSKAVEIEEQTKRLLEGMELIVSQVHPETKENEIYPVWSGLPSLQMADEESRLSAYYNLLHCLRRDSHKIDNYLKLLKCRIIHNNNC

Assays:
[1] = system: MDA-MB-468 breast cancer cells; test: LDH cytotoxicity assay; assay type: cell-based; conditions: especially at 10-fold higher doses
Protocol: (§1) FIG. 1A. Bar graph showing inhibition of PRL-induced invasion of breast cancer cells by SMI-1 and SMI-6; FIG. 1B. Bar graph showing only minimal cytotoxicity at indicated concentrations.
(§2) Both SMI-1 and SMI-6 at 1 μM concentrations abrogated PRL-induced invasion of MDA-MB-468 breast cancer cells, using Boyden chambers (FIG. 1A).

Jurkat human lymphocytes = test: Autocrine PRL-dependent BrdU uptake (cell proliferation) by flow cytometry; assay type: cell-based; conditions: for cell proliferation (BrdU uptake) driven by autocrine PRL: 1 μM SMI 24 hrs in 2% charcoal-stripped serum, then 1 nM PRL 24 hrs
Protocol: FIG. 2. Bar graph showing suppression of autocrine PRL-dependent BrdU uptake in Jurkat lymphocytes by […] of each SMI, as determined by flow cytometry; the top panel indicates percent of live cells.
To examine whether the SMIs can suppress cell proliferation that is driven by autocrine PRL, Jurkat human lymphocytes were utilized, which produce large amounts of autocrine PRL. Autocrine PRL in lymphocytes is well known to promote cell proliferation. The cells were incubated for 24 hrs in 2% charcoal-stripped serum (which is devoid on exogenous lactogenic hormones) with 1 μM of SMI-1 or SMI-6, and then with 1 nM PRL for 24 hrs. BrdU uptake was analyzed by flow cytometry.

[2] = system: MDA-MB-468 breast cancer cells; test: PRL-induced invasion of breast cancer cells, Boyden chambers; assay type: cell-based; conditions: 1 μM
Protocol: as §1, §2

[3] = system: postoperative mechanical pain; test: Mechanical allodynia (anesthesiometer, withdrawal threshold) after hind paw surgery; assay type: in vivo; conditions: female mice, one day after surgery; 5 μg peripherally, 5 μg or 25 μg spinally
Protocol: FIG. 4. […] BL—baseline: POP—postoperative pain; SMI-6 was applied either peripherally ([…]), or spinally ([…]); each value is a mean±SME of 6 mice/treatment. Female mice were operated on the right hind paw. One day after surgery, 5 μg SMI-6 was applied either peripherally or centrally/spinally (5 μg or 25 μg) and mice were subjected to thermal nociception or mechanical allodynia (increased sensitization to tactile stimuli). […] SMI-6 at the 25 μg dose was effective in alleviating thermal pain by as much as 75%. For evaluating allodynia, an anesthesiometer was used, which applied a constant ramp of increasing mechanical pressure to the injured paw. […] was measured in grams.

[4] = system: postoperative thermal pain; test: Thermal nociception (heat hyperalgesia, paw withdrawal latency) after hind paw surgery; assay type: in vivo; conditions: female mice
Protocol: FIG. 3. […] Female mice were operated on the right hind paw. One day after surgery, 5 μg SMI-6 was applied either peripherally or centrally/spinally (5 μg or 25 μg) and mice were subjected to thermal nociception or mechanical allodynia (increased sensitization to tactile stimuli). […] SMI-6 at the 25 μg dose was effective in alleviating thermal pain by as much as 75%.

| Molecule | toxicity in LDH cytotoxicity assay [1] | cell proliferation (BrdU uptake) driven by autocrine PRL (Jurkat human lymphocytes) | PRL-induced invasion of MDA-MB-468 breast cancer cells [2] | abrogation of mechanical pain (allodynia, withdrawal threshold) [3] | alleviation of thermal pain ([4]; 25 μg dose) | alleviation of thermal pain (leg withdrawal latency), dose dependence ([4]; one day after surgery, 5 μg peripherally, 5 μg or 25 μg spinally) | effect of added PRL on BrdU uptake (Jurkat human lymphocytes; 1 nM PRL for 24 hrs) |
| --- | --- | --- | --- | --- | --- | --- | --- |
| Cn1nc(Nc2ccc(Cl)cc2O)c(N)nc1=O [SMI-1] | minimal toxicity | completely blocked | abrogated |  |  |  |  |
| CCN(CC)c1ccc(/C=N/NC(=O)c2c(Cl)cnn2C)c(O)c1 [SMI-6] | minimal toxicity | completely blocked | abrogated | equally as effective | ≤ 75% | dose-dependent alleviation |  |
| B1 |  |  |  |  |  |  | no effect |
